# Measured values: ChEMBL document CHEMBL1143692, “Modulating paclitaxel bioavailability for targeting prostate cancer” (Bioorg Med Chem, 2007)
# Starred links: 1 amine or outer side, 2 acyl side, 3 side chain; linkers in the order of their positions; H or OH if unused. Residues, ends and D or L forms follow the SMILES beside them. *: point of attachment. Morpholide = C1CN(*)CCO1; CO = O=C([*:1])[*:2]
# Key:
# [1] = test system: TSU; test: Growth inhibition of human TSU cells at 1 nM; format: functional
# [2] = test system: Plasma; test: Degradation in plasma at 100 uM after 48 hrs; format: functional, Homo sapiens
# [3] = test system: Serum; test: Degradation in serum at 100 uM after 48 hrs; format: functional, Homo sapiens
# [4] = Half life in serum at 100 uM after 48 hrs at 37 degC; format: ADME, cell-free; conditions: human
# [5] = test system: prostate-specific antigen; test: Half life in Tris buffer at pH 7.8, 37 degC for 48 hrs in presence of prostate-specific antigen at 100 uM; format: ADME, Prostate gland; conditions: Tris buffer with prostate-specific antigen
# [6] = species: Homo sapiens; test: Ratio of […] for prostate-specific antigen; conditions: Prostate gland
# [7] = species: Homo sapiens; test: Activity at prostate-specific antigen hydrolysis at pH 7.8; format: tissue-based; conditions: Prostate gland
# [8] = test system: DU-145; test: Toxicity against human DU145 cells upto 100 uM; format: functional, cell-based
# [9] = test system: CWR22R; test: Toxicity against human CWR22Rv1 cells upto 100 uM; format: functional, cell-based
# [10] = test system: TSU; test: Toxicity against human TSU cells upto 100 uM; format: functional, cell-based
# [11] = Growth inhibition of human CWR22Rv1 cells; format: functional, cell-based, CWR22R; conditions: 22Rv1
# [12] = test system: TSU; test: Growth inhibition of human TSU cells; format: functional, cell-based
# [13] = Cytotoxicity against human CWR22Rv1 cells after 96 hrs; format: functional, cell-based, CWR22R; conditions: 22Rv1, 96 h
# [14] = test system: DU-145; test: Growth inhibition of human DU145 cells; format: functional, cell-based
half-life at 100 µM [4] [h],half-life at 100 µM [5] [h],SMILES,inhibition at 0.001 µM [1] [%],Percent degraded [2] [%],Activity [3] [%],further results
1.5,14,CC(=O)O[C@H]1C(=O)[C@]2(C)[C@@H](OC(=O)OCc3ccc(NC(=O)[C@H](CCC(N)=O)NC(=O)[C@H](CC(C)C)NC(=O)[C@H](CCCCN)NC(=O)[C@H](CO)NC(=O)[C@H](CO)NC(=O)[C@H](Cc4c[nH]cn4)NC(=O)N4CCOCC4)cc3)C[C@@H]3OC[C@]3(OC(C)=O)[C@@H]2[C@H](OC(=O)c2ccccc2)[C@]2(O)C[C@@H](OC(=O)[C@H](O)[C@@H](NC(=O)c3ccccc3)c3ccccc3)C(C)=C1C2(C)C,30,7,92,kcat/Km [6]: 27 M⁻¹ s⁻¹; Km [7]: 216 µM; kcat [7]: 0.00585 s⁻¹
–,–,NCCCC[C@H](NC(=O)[C@H](CO)NC(=O)[C@H](CO)NC(=O)N1CCOCC1)C(=O)N[C@@H](Cc1ccc(O)cc1)C(=O)N[C@@H](CCC(N)=O)C(=O)O ({Morpholide-CO}-SSKYQ-OH),–,–,–,Activity [8]: Not toxic; Activity [9]: Not toxic; Activity [10]: Not toxic
–,6,CC(=O)O[C@H]1C(=O)[C@]2(C)[C@@H](O)C[C@@H]3OC[C@]3(OC(C)=O)[C@@H]2[C@H](OC(=O)c2ccccc2)[C@]2(O)C[C@@H](OC(=O)[C@H](OC(=O)N(C)CCNC(=O)[C@H](CCC(N)=O)NC(=O)[C@H](Cc3ccc(O)cc3)NC(=O)[C@H](CCCCN)NC(=O)[C@H](CO)NC(=O)[C@H](CO)NC(=O)N3CCOCC3)[C@@H](NC(=O)c3ccccc3)c3ccccc3)C(C)=C1C2(C)C,–,<3,<2,IC50 [11]: < 1 nM; IC50 [12]: < 1 nM; IC50 [13]: 1000 nM; IC50 [14]: < 1 nM
–,10,CC(=O)O[C@H]1C(=O)[C@]2(C)[C@@H](O)C[C@@H]3OC[C@]3(OC(C)=O)[C@@H]2[C@H](OC(=O)c2ccccc2)[C@]2(O)C[C@@H](OC(=O)[C@H](OC(=O)N(C)CCNC(=O)[C@H](CCC(N)=O)NC(=O)[C@H](CC(C)C)NC(=O)[C@H](CCCCN)NC(=O)[C@H](CO)NC(=O)[C@H](CO)NC(=O)[C@H](Cc3c[nH]cn3)NC(=O)N3CCOCC3)[C@@H](NC(=O)c3ccccc3)c3ccccc3)C(C)=C1C2(C)C,–,<3,<2,–
–,–,CC(=O)O[C@H]1C(=O)[C@@]2(C)[C@H]([C@H](OC(=O)c3ccccc3)[C@]3(O)C[C@H](OC(=O)[C@H](O)[C@@H](NC(=O)c4ccccc4)c4ccccc4)C(C)=C1C3(C)C)[C@]1(OC(C)=O)CO[C@@H]1C[C@@H]2O [PACLITAXEL],90,–,–,–
1,12,CC(=O)O[C@H]1C(=O)[C@]2(C)[C@@H](O)C[C@@H]3OC[C@]3(OC(C)=O)[C@@H]2[C@H](OC(=O)c2ccccc2)[C@]2(O)C[C@@H](OC(=O)[C@H](OC(=O)OCc3ccc(NC(=O)[C@H](CCC(N)=O)NC(=O)[C@H](CC(C)C)NC(=O)[C@H](CCCCN)NC(=O)[C@H](CO)NC(=O)[C@H](CO)NC(=O)[C@H](Cc4c[nH]cn4)NC(=O)N4CCOCC4)cc3)[C@@H](NC(=O)c3ccccc3)c3ccccc3)C(C)=C1C2(C)C,30,10,87,–
